Entries after “also recorded” stand apart in the source; their conditions may differ.
Key:
Glucose tolerance test = assay type: in vivo, mice; conditions: for response to glucose challenge / glucose intolerance: WT mice exposed to stress and high-fat diet, FIG. 18A
Experimental: Glucose tolerance test: After an overnight 17 h fast, unanesthetized mice are injected i.p. with a dose of 1.5 g of 50% glucose solution per kg of body weight. Blood samples are obtained from the tail vein 30 min prior to the glucose challenge and then again at 0, 30, 60, 90 min after the glucose challenge. Blood glucose concentrations are measured with an Elite XL (Bayer) portable glucose meter.
1. Cell culture: 3T3-L1 preadipocyte cells, (gift from Dr. Lane,^34) were cultured in DMEM high glucose media with glutamine, 10% calf sera (Gemini Bioproducts), d-Biotin (8 μg/ml) and Pantothenate (8 μg/ml) (Sigma). SK-N-BE(2) neuroblastoma cells (ATCC) were cultured in EMEM/F12K with 10% fetal bovine sera (FBS). HMVEC endothelial cells (Cambrex) were cultured in endothelial cell growth media (Cambrex). All media was supplemented with 100 units/ml penicillin, 100 μg/ml streptomycin and […] amphotericin. 2. Proliferation assay: Cells were plated onto 96-well dishes, growth-arrested in serum-free media for 24 h, and then were treated with the desired factors for 24 h in the culture media supplemented with 0.25% FBS; 4 hr after treatment 0.5 μCi [^3H] thymidine was added to each well. After 24 h, cells were harvested in a 96-well harvester (Tomtec) and counted in a Betaplate Liquid Scintillation Counter (Wallac). 3. Co-culture: For mitogenic assay and expression studies, co-culture was performed in a Costar Transwell system. Cells were plated on 6-well plates or inserts with 0.4 μm Polyester membranes. At 30% confluence, the inserts were combined with wells containing other cells. […] After 48 hr, the cells were counted with a Beckman Coulter Counter. […] The results were analyzed using software provided by BioRad and expression levels calculated by the comparative CT method using β-actin as an endogenous reference gene, according to the Applied Biosystems' ABI PRISM 7700 User Bulletin #2. […] The density of TUNEL positive cells will be measured using NIH ImageJ software (using a plugin written by Wayne Rasband). […]

abdominal fat = test: Stress and high-fat diet induced obesity model; assay type: in vivo, mice
Experimental: In environmentally-induced obese mice, normal NWT C57BL/6 and SV129 mice are subjected to low levels of chronic stress (cold stress, 1 cm ice-water bath at the base of the cage for 1 hour, a technique that increases NPY and stimulates vascular growth) and fed a high-fat, “comfort food” diet consisting of lard and sucrose (standard chow diet/high fat diet: fat: 12%/45%, carbohydrates: 60%/35%, and protein: 28%/20%). These mice are treated with NPY, Y2R agonists and Y2R antagonists. The growth of fat deposits is monitored by MRI and vascularization is confirmed by immunohistochemistry (IHC). ELISA, IHC, and quantitative real-time RT-PCR are used to determine how diet and stress affect NPY and Y2R levels. Core body temperature and food intake are monitored to determine changes in metabolism (FIG. 15). Glucose tolerance tests and lipid profiles of the mice are used to determine whether altering adipose mass results in a change in insulin, glucose, FFA, TG or cholesterol in the plasma (FIG. 18).
Magnetic Resonance Imaging (MRI): A Brukker 7-Tesla small-animal magnetic resonance imager coil is used to visualize and noninvasively quantitate various fat depots. A 3-dimensional (3D) T2-weighted (T2W) imaging protocol optimized for high contrast fat-imaging is implemented. […] Quantification of the total body fat as well as separate specific fat depots is calculated using thresholding and voxel count plugins from NIH image J software. VolumeJ is used to render, in a 3D image, the various fat depots. The animal management system that is used in conjunction with the MRI is equipped to take core, skin, ambient and water blanket temperature measurements that are monitored during the imaging. The water blanket is used to regulate core temperature of the rodent during anesthesia. […]
High fat diet: Mice are given either a Standard Chow (SC) diet: 28% protein, 60% carbohydrate, 12% fat (4 kcal/gm) or a High Fat (HF) diet: 20% protein, 35% carbohydrate, 45% fat (4.7 kcal/gm) from Research Diets for 14-28 days. Food consumption is measured daily from the various treatment groups and pairfeeding ensures that changes seen in weight and visceral fat are due to the peripheral effects of the treatment. […]

[1] = intra-fat injection, HF and stress
[2] = local Y2R antagonist, stress and HF-diet
[3] = local intra-fat injections, within 2-weeks, HF + stress

## N=C(N)NCCC[C@H](NC(=O)CC1(CC(=O)N2CCN(C3c4ccccc4NC(=O)c4ccccc43)CC2)CCCC1)C(=O)NCCn1c(=O)n(-c2ccccc2)n(-c2ccccc2)c1=O (some centres unmarked) [BIIE0246]
Glucose tolerance test; listed as Y2R antagonist
  response to glucose challenge / glucose intolerance: resolved
Glucose tolerance test; listed as Y2 antagonist
  response to glucose challenge / glucose intolerance: normalized glucose intolerance
Glucose tolerance test; ob/ob mice, FIG. 18B, listed as Y2R antagonist
  response to glucose challenge: near normal response to the challenge; also recorded: resolved
Abdominal fat; four weeks daily 1-hr cold stress + high fat diet
  stress-amplification of visceral fat (MRI fat volume fraction): reversed
Abdominal fat; intra-fat administration
  stress-induced insulin-to-NPY switch and metabolic abnormalities: fully prevented
Abdominal fat; [1]
  fat mass: reduced fat mass
  imbalance of NPY-to-epinephrine plasma levels: reversed this imbalance
Abdominal fat; intra-fat injections
  stress+HF-induced hyperlipidemia: did not alter
Abdominal fat; intra-fat injections, stress+HF
  UCP-1/2 expression in WAT: did not alter
Abdominal fat; [2]
  adipocyte apoptosis (TUNEL): increased their apoptosis
  adipocyte proliferation (Ki67+ staining): inhibited adipocyte proliferation
Abdominal fat; [3]
  insulin levels: increased insulin levels
  metabolic profile: improved metabolic profile
  plasma NPY levels: normalized
  plasma adipokine levels: normalized
Abdominal fat; local intra-fat injections, HF + stress, listed as Y2R antagonist
  tissue steatosis (liver and skeletal muscle): inhibited tissue steatosis; also recorded: reduced liver and skeletal muscle steatosis
Abdominal fat; nonstressed WT mice, FIG. 17
  visceral fat: significant reduction in visceral fat
Abdominal fat; stress combined with HF, intra-fat delivery
  lowered plasma osteocalcin levels (bone loss response): completely normalized
Abdominal fat; stress in HF-fed mice
  stress-induced WAT cellularity, proliferation of small adipocytes: reversed
Abdominal fat; stressed C57BL/6 WT mice, FIG. 17
  visceral fat volume fraction: reversed
Abdominal fat; stressed HF-fed mice, 2-weeks
  other fat depots: without significantly changing other depots
Abdominal fat; stressed HF-fed mice, pellet 10 μg/14 days or daily injections 1 μM, 2-weeks
  reduction of abdominal (subcutaneous and visceral) depot: 40%
Abdominal fat; stressed SV129 mice on high-fat diet, Y2R antagonist slow-release pellets, FIG. 16
  visceral fat volume fraction: reduced to a level that is comparable to nonstressed SV129 mice given a placebo pellet
